From the supplement of paper PMC8497498

Columns and labels:
[1] = tested on: Plasmodium vivax liver stage (primary human hepatocyte culture); assay: maximum inhibition of schizont net growth area; higher = more active
In short: (§1)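 Primary human hepatocytes were infected with P. vivax sporozoites from patient-isolate-fed mosquitoes. Compounds were added as 40 nL pin transfers from 1000× DMSO plates, at 8 points (10 uM[…]) or 12 points in duplicate (50 uM–280 pM). Fixed, immunostained wells were imaged by high-content imaging for schizont growth area, hypnozoite count and hepatic nuclei, normalised to DMSO and positive-control wells. Potency, maximum inhibition and nuclei-loss cytotoxicity came from CDD Vault curves of the highest-quality run, with toxic bell-shaped points removed.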

[2] = tested on: primary human hepatocytes; assay: CC20 hepatic nuclei (20% reduction); higher = less toxic
In short: as §1

[3] = tested on: Plasmodium falciparum 3D7 asexual blood stage; assay: EC50 asexual blood stage growth; details: serum: 0.5% AlbuMAX
In short: (§2)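 Asexual blood-stage P. cynomolgi and P. falciparum were exposed to reference compounds in SYBR Green proliferation assays. For P. cynomolgi, threefold serial dilutions in DMSO gave ten points, which were dispensed acoustically at 500-fold dilution to a top dose of 10 µM, with vehicle and positive-control wells and media containing 0.5% AlbuMAX or 20% macaque serum. P. falciparum was assayed over 72 h in AlbuMAX-containing medium. Each EC50 is the geometric mean across independent experiments.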

[4] = tested on: Plasmodium cynomolgi Berok K4 asexual blood stage; assay: EC50 asexual blood stage growth
In short: as §2

[5] = tested on: Plasmodium vivax liver stage (primary human hepatocyte culture)
In short: as §1

[6] = P. vivax isolate: Pv360, hepatocyte lot: UBV, assay mode: Radical Cure, 8-day (treatment from day 5 post-infection)
[7] = P. vivax isolate: Pv914, hepatocyte lot: BGW, assay mode: Prophylactic, 6-day
[8] = serum: 20% M. fascicularis serum
[9] = P. vivax isolate: Pv796, hepatocyte lot: BGW, assay mode: Radical Cure, 8-day (treatment from day 5 post-infection)
[10] = P. vivax isolate: Pv557, hepatocyte lot: UBV, assay mode: Radical Cure, 8-day (treatment from day 5 post-infection)

| Compound | maximum inhibition [1, 6] | maximum inhibition [1, 7] | CC20 hepatic nuclei [2, 6] | CC20 hepatic nuclei [2, 7] | EC50 asexual blood stage growth [3] | EC50 asexual blood stage growth ([4]; serum: 0.5% AlbuMAX) | EC50 asexual blood stage growth [4, 8] | EC50 hypnozoite quantity [5, 6] | EC50 schizont net growth area [5, 6] | EC50 hypnozoite quantity [5, 7] | EC50 schizont net growth area [5, 7] | maximum inhibition [1, 9] | CC20 hepatic nuclei [2, 9] | EC50 hypnozoite quantity [5, 9] | maximum inhibition [1, 10] | CC20 hepatic nuclei [2, 10] | EC50 hypnozoite quantity [5, 10] | EC50 schizont net growth area [5, 10] |
| --- | --- | --- | --- | --- | --- | --- | --- | --- | --- | --- | --- | --- | --- | --- | --- | --- | --- | --- |
| Clc1ccc2c(N[C@H]3CCCC[C@@H]3Nc3ccnc4cc(Cl)ccc34)ccnc2c1 [Ro 47-7737] | 70.6% | 99% | > 10 µM | > 3.33 µM | 0.002 µM | 0.0042 µM | 0.0036 µM | > 10 µM | > 3.33 µM | > 3.33 µM | > 3.33 µM | – | – | – | – | – | – | – |
| N#Cc1cc(NC(=O)C2c3ccccc3C(=O)N(CC(F)(F)F)C2c2cccnc2)ccc1F (stereo unspecified) [SJ733] | – | – | – | – | 0.106 µM | 0.538 µM | 0.293 µM | – | – | – | – | 56.8% | > 50 µM | > 50 µM | – | – | – | – |
| CN(C)[C@@H]1C(O)=C(C(N)=O)C(=O)[C@@]2(O)C(O)=C3C(=O)c4c(O)cccc4[C@@](C)(O)[C@H]3C[C@@H]12 [Tetracycline] | – | 56.7% | – | > 10 µM | > 10 µM | > 10 µM | > 10 µM | – | – | > 10 µM | – | – | – | – | – | – | – | – |
| C=C(NC(=O)C(=C)NC(=O)c1csc(C2=NC3c4csc(n4)C4NC(=O)c5csc(n5)C(C(C)(O)C(C)O)NC(=O)C5CSC(=N5)C(=CC)NC(=O)C(C(C)O)NC(=O)c5csc(n5)C3(CC2)NC(=O)C(C)NC(=O)C(=C)NC(=O)C(C)NC(=O)C(C(C)CC)NC2C=Cc3c(C(C)O)cc(nc3C2O)C(=O)OC4C)n1)C(N)=O (stereo unspecified) [Thiostrepton] | 80.2% | 99.1% | > 10 µM | > 3.33 µM | > 10 µM | 3.93 µM | 9.13 µM | > 10 µM | > 3.33 µM | 4.04 µM | 2.39 µM | – | – | – | – | – | – | – |
| CCCCCCC[C@H]1CN[C@H](C(=O)NC(C(C)Cl)C2O[C@H](SC)[C@H](O)[C@@H](O)[C@H]2O)C1 (stereo partly drawn) [Trans-Mirincamycin] | – | 72.5% | – | > 10 µM | > 10 µM | > 10 µM | > 10 µM | – | – | > 10 µM | – | – | – | – | – | – | – | – |
| Nc1ncc(-c2ccc(C(=O)N3CCNCC3)cc2)nc1-c1ccc(C(F)(F)F)cc1 [UCT943] | – | 100% | – | > 10 µM | 0.318 µM | 0.0344 µM | 0.0206 µM | – | – | 0.00427 µM | 0.00175 µM | – | – | – | 101% | > 10 µM | > 10 µM | 0.00238 µM |
